Experiments:
RXF-393 = assay: NCI cytotoxicity screen (SRB); type: cell-based, human
HOP-92 = assay: NCI cytotoxicity screen (SRB); type: cell-based, human; conditions: subsequent test date
VO-31 = assay: NCI cytotoxicity screen (SRB); type: cell-based, human
CCRF-CEM = assay: NCI cytotoxicity screen (SRB); type: cell-based, human
786-0 = assay: NCI cytotoxicity screen (SRB); type: cell-based, human
M19-MEL = assay: NCI cytotoxicity screen (SRB); type: cell-based, human
OVCAR-4 = assay: NCI cytotoxicity screen (SRB); type: cell-based, human
SNB-75 = assay: NCI cytotoxicity screen (SRB); type: cell-based, human
SK-MEL-2 = assay: NCI cytotoxicity screen (SRB); type: cell-based, human
OVCAR-3 = assay: NCI cytotoxicity screen (SRB); type: cell-based, human
A498 = assay: NCI cytotoxicity screen (SRB); type: cell-based, human
ACHN = assay: NCI cytotoxicity screen (SRB); type: cell-based, human
SNB-19 = assay: NCI cytotoxicity screen (SRB); type: cell-based, human
calf thymus DNA = assay: circular dichroism (CD) titration, calf thymus DNA; type: binding; conditions: for isobestic point: calf thymus DNA; for binding site size: from saturation point r'~0.25; for saturation point r': moles of drug to moles of DNA base pairs
Description: The DNA binding properties of the present compounds were assessed by circular dichroism (CD) titration experiments. Methods for CD titration can be found, for example, in Zimmer et al. (1986) Prog. Biophys. Molec. Biol 47, 31. The conformation of DNA can be readily determined by CD experiments, and for B-DNA, characteristic positive and negative Cotton effects are observed at 260 and 245 nm, respectively.
The interaction of Compounds 6-10 to a number of DNAs [calf thymus, poly(dA dT) and poly(dG dC)] were analyzed by CD titration studies. All the CD titration experiments were performed using identical procedures, concentrations of DNA, and increments of drug:DNA ratios (or `r`, i.e. moles of drug to moles of DNA base pairs). Therefore, the differences observed in the CD spectra for the titration of each of the compounds to the polydeoxynucleotides may be directly compared to reflect their DNA binding properties.
All experiments were performed with a continuous flow of nitrogen purging the polarimeter. A 1 mm path length jacketed cell was used and all experiments were done at room temperature. Initially, DNA [0.02 μ moles (base pairs), 130 μL] was placed in the cell and the spectrum of the DNA alone was collected. Aliquots of drug were added and the spectra collected. The drug solutions were 1 mM and amounts of the drug added correspond to a drug to base pair ratio of 0.05, 0.10, 0.15, 0.20, 0.25, 0.30, 0.40, 0.50, 0.60, 0.80, 1.00. The scan parameters were set and standard for all experiments. The spectra were collected from 400 nm to 200 nm. The sensitivity was set at 1 mdeg and the scan speed was set at 20 nm per minute. Three scans were accumulated and automatically averaged by the computer. The λmax and ellipticity (mdeg) for each spectrum were collected from the raw scans and the final plots were smoothed by the noise reduction program on the computer. […] The induced CD band is presumably due to the uv absorption π to π^* transition of the drug in the drug:DNA complex. […] Therefore interaction of these drugs with DNA causes only minor conformational changes in the double helix.

SNB-78 = assay: NCI cytotoxicity screen (SRB); type: cell-based, human
RPMI-8226 = assay: NCI cytotoxicity screen (SRB); type: cell-based, human
UACC-257 = assay: NCI cytotoxicity screen (SRB); type: cell-based, human
HOP-18 = assay: NCI cytotoxicity screen (SRB); type: cell-based, human; conditions: subsequent test date
UACC-62 = assay: NCI cytotoxicity screen (SRB); type: cell-based, human
1GROV1 = assay: NCI cytotoxicity screen (SRB); type: cell-based, human
OVCAR-8 = assay: NCI cytotoxicity screen (SRB); type: cell-based, human

In the case of `CN(C)CCNC(=O)c1nc(NC(=O)c2nc(NC(=O)c3nc(NC(=O)c4ccc(N(CCCl)CCCl)cc4)cn3C)cn2C)cn1C` [Compound 7, N-(N',N'-dimethylaminoethyl)-1-methyl-4-{1-methyl-4-[4-(4,4-bis-(2-chloroethyl)aminobenzamido)-1-methylimidazole-2-carboxamido]imidazole-2-carboxamido}imidazole-2-carboxamide], the IC50 (RXF-393; 48 h, Renal Cancer RXF-393) is reported as 0.66 µM, the IC50 (HOP-92) is reported as 3.33 µM and the IC50 (VO-31; 48 h, Renal Cancer VO-31) is reported as greater than 100 µM. It also gave an IC50 (VO-31; VO-31, subsequent test date) of 96.6 µM, an IC50 (CCRF-CEM; 48 h, Leukemia CCRF-CEM) of 1.52 µM and an IC50 (786-0; 786-0, subsequent test date) of 0.51 µM. For the same molecule, the IC50 (M19-MEL; M19-MEL, subsequent test date) was 0.78 µM, the IC50 (OVCAR-4; 48 h, Ovarian Cancer OVCAR-4) was 0.61 µM and the IC50 (OVCAR-4; OVCAR-4, subsequent test date) was 0.5 µM. It also gave an IC50 (SNB-75; 48 h, CNS Cancer SNB-75) of 0.61 µM, an IC50 (SK-MEL-2; 48 h, Melanoma SK-MEL-2) of 0.65 µM and an IC50 (OVCAR-3; 48 h, Ovarian Cancer OVCAR-3) of 0.72 µM. It also gave an IC50 (OVCAR-3; OVCAR-3, subsequent test date) of 0.62 µM, an IC50 (A498; 48 h, Renal Cancer A498) of 7.76 µM and an IC50 (ACHN; 48 h, Renal Cancer ACHN) of 7.05 µM. The IC50 (ACHN; ACHN, subsequent test date) was 4.92 µM, the IC50 (SNB-19; 48 h, CNS Cancer SNB-19) was greater than 100 µM and the “weak negative CD band, ellipticity” value (calf thymus DNA; 335 nm, r'=0.2) was 0.5 mdeg. For the same molecule, the isobestic point (calf thymus DNA) was 300 nm, the binding site size (calf thymus DNA) was “four” and the “saturation point r'” value (calf thymus DNA) was ~ 0.25.

For `CN(C)CCNC(=O)c1nc(NC(=O)c2nc(NC(=O)c3nc(NC(=O)CCCc4ccc(N(CCCl)CCCl)cc4)cn3C)cn2C)cn1C` [Compound 10, N-(N',N'-dimethylaminoethyl)-1-methyl-4-{1-methyl-4-[4-(4,4-bis(2-chloroethyl)aminophenyl-1-butanamido)-1-methylimidazole-2-carboxamido]imidazole-2-carboxamido}imidazole-2-carboxamide], the IC50 (SNB-78; 48 h, CNS Cancer SNB-78) was 9.75 µM and the IC50 (RPMI-8226; 48 h, Leukemia RPMI-8226) was 9.5 µM.

With `CN(C)CCNC(=O)c1nc(NC(=O)c2nc(NC(=O)c3ccc(N(CCCl)CCCl)cc3)cn2C)cn1C` [Compound 6, N-(N',N'-dimethylaminoethyl)-1-methyl-4-{4-[4,4-bis(2-chloroethyl)aminobenzamido]-1-methylimidazole-2-carboxamido}imidazole-2-carboxamide] the IC50 (RXF-393; 48 h, Renal Cancer RXF-393) was 50.3 µM, the IC50 (RXF-393; RXF-393, subsequent test date) was 44.3 µM and the IC50 (HOP-92) was 42.7 µM. It also gave an IC50 (VO-31; 48 h, Renal Cancer VO-31) of 59.2 µM, an IC50 (VO-31; VO-31, subsequent test date) of 57.9 µM and an IC50 (UACC-257; 48 h, Melanoma UACC-257) of 7.03 µM. The IC50 (UACC-257; UACC-257, subsequent test date) was 57.6 µM, the IC50 (CCRF-CEM; 48 h, Leukemia CCRF-CEM) was 10.9 µM and the IC50 (CCRF-CEM; CCRF-CEM, subsequent test date) was 40.3 µM. It also gave an IC50 (786-0; 786-0, subsequent test date) of 6.98 µM, an IC50 (786-0; 48 h, Renal Cancer 786-0) of 25.4 µM and an IC50 (SNB-78; 48 h, CNS Cancer SNB-78) of 67.2 µM. For the same molecule, the IC50 (SNB-78; SNB-78, subsequent test date) was 78.9 µM, the IC50 (M19-MEL; 48 h, Melanoma M19-MEL) was 5.64 µM and the IC50 (M19-MEL; M19-MEL, subsequent test date) was 5.65 µM. It also gave an IC50 (RPMI-8226; 48 h, Leukemia RPMI-8226) of 30.5 µM, an IC50 (RPMI-8226; RPMI-8226, subsequent test date) of 39.4 µM and an IC50 (HOP-18) of 10.2 µM. For the same molecule, the IC50 (OVCAR-4; 48 h, Ovarian Cancer OVCAR-4) was 34.2 µM, the IC50 (OVCAR-4; OVCAR-4, subsequent test date) was 14.3 µM and the IC50 (SNB-75; 48 h, CNS Cancer SNB-75) was 41 µM. For the same molecule, the IC50 (SNB-75; SNB-75, subsequent test date) was 41.7 µM, the IC50 (SK-MEL-2; 48 h, Melanoma SK-MEL-2) was 7.17 µM and the IC50 (SK-MEL-2; SK-MEL-2, subsequent test date) was 5.85 µM. It also gave an IC50 (OVCAR-3; 48 h, Ovarian Cancer OVCAR-3) of 56 µM, an IC50 (OVCAR-3; OVCAR-3, subsequent test date) of 56.7 µM and an IC50 (A498; 48 h, Renal Cancer A498) of 40.6 µM. It also gave an IC50 (A498; A498, subsequent test date) of 66 µM, an IC50 (ACHN; 48 h, Renal Cancer ACHN) of 54.2 µM and an IC50 (ACHN; ACHN, subsequent test date) of 46.9 µM. For the same molecule, the IC50 (SNB-19; 48 h, CNS Cancer SNB-19) was 43.7 µM, the IC50 (SNB-19; SNB-19, subsequent test date) was 32.4 µM and the IC50 (UACC-62; 48 h, Melanoma UACC-62) was 7.61 µM. For the same molecule, the IC50 (UACC-62; UACC-62, subsequent test date) was 59.7 µM, the IC50 (1GROV1; 1GROV1, subsequent test date) was 59.6 µM and the IC50 (1GROV1; 48 h, Ovarian Cancer 1GROV1) was 50 µM. For the same molecule, the IC50 (OVCAR-8; 48 h, Ovarian Cancer OVCAR-8) was 45.3 µM, the IC50 (OVCAR-8; OVCAR-8, subsequent test date) was 20.8 µM and the “negative CD band, ellipticity” value (calf thymus DNA; 310 nm, r'=0.2, low drug concentration) was 0.2 mdeg. For the same molecule, the “negative CD band, ellipticity” value (calf thymus DNA; 315 nm, r'>0.4, higher drug concentrations) was ~ 3 mdeg, the “weak positive CD band, ellipticity” value (calf thymus DNA; 340 nm, r'=0.2, low drug concentration) was 0.8 mdeg and the isobestic point (calf thymus DNA) was 320 nm. The binding site size (calf thymus DNA) was “about four”, the “saturation point r'” value (calf thymus DNA) was ~ 0.25 and the “positive CD band at 340 nm, in words” value (calf thymus DNA; r'>0.4, higher drug concentrations) was “disappeared”.

Reference: patent US5273991A, “Imidazole-containing compositions and methods of use thereof analogs of distamycin” (Research Corporation Technologies, Inc., priority 1992, dated 1993)
